Reference: PubChem BioAssay (NCI)
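Step 1: Grow cells in 96-well plates. Step 2: Expose to compound for 48 hours at 5 concentrations. Step 3: Interpolate endpoints linearly; if unreached, use highest concentration. Abbreviation: GI50, concentration required for 50% inhibition of growth. Definition used: TGI = concentration required for complete inhibition of growth.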

Tests used:
Assay in all cases: inhibition of tumour cell growth, NCI panel, 48 h
[1] = tested on: CAKI-1 renal
[2] = tested on: HCT-15 colon
[3] = tested on: HOP-92 NSCLC
[4] = tested on: MOLT-4 leukemia
[5] = tested on: NCI-H23 lung
[6] = tested on: NCI-H460 lung
[7] = tested on: RXF 393 renal
[8] = tested on: SF-268 CNS
[9] = tested on: SK-MEL-2 melanoma
[10] = tested on: K-562 leukemia

| Structure (SMILES) | GI50 [1] [µM] | TGI [1] [µM] | GI50 [2] [µM] | TGI [2] [µM] | GI50 [3] [µM] | TGI [3] [µM] | GI50 [4] [µM] | TGI [4] [µM] | GI50 [5] [µM] | TGI [5] [µM] | GI50 [6] [µM] | TGI [6] [µM] | GI50 [7] [µM] | TGI [7] [µM] | GI50 [8] [µM] | TGI [8] [µM] | GI50 [9] [µM] | TGI [9] [µM] | GI50 [10] [µM] | TGI [10] [µM] |
| --- | --- | --- | --- | --- | --- | --- | --- | --- | --- | --- | --- | --- | --- | --- | --- | --- | --- | --- | --- | --- |
| COc1cc2c(=O)n(CCN)c3c4cc5c(cc4ccc3c2cc1OC)OCO5 | 0.382 | 5.94 | 0.651 | 2.19 | 3.31 | 18 | 0.0671 | 0.863 | 0.683 | 2.51 | 0.236 | 1.25 | 1.02 | 2.56 | 0.423 | 2.14 | 3.69 | 16.5 | – | – |
| Cc1nc2sccn2c1-c1csc(Nc2cccc(Cl)c2C)n1 | 3.73 | 33.3 | 3.62 | 31.9 | – | – | 4.22 | 26.8 | – | – | 3.58 | 20.3 | 4.19 | 37.6 | 11.9 | 74.4 | 3.78 | 14 | 2.12 | > 100 |
| Cc1cc(C)c(C(=O)c2no[n+]([O-])c2C(=O)c2c(C)cc(C)c(Br)c2C)c(C)c1Br | – | 44.8 | – | 30 | – | 20.3 | – | 20.2 | – | 24.3 | – | 45.8 | – | 19.9 | – | 29.8 | – | 30.9 | – | – |
| CC(=O)OCC(OC(C)=O)C(OC(C)=O)C(OC(C)=O)C(=O)CNn1c(-c2ccccc2Cl)nc2ccccc2c1=O (stereo not given) | – | > 100 | – | > 100 | – | – | – | > 100 | – | > 100 | – | > 100 | – | > 100 | – | > 100 | – | > 100 | – | > 100 |
| CCOC(=O)/C=C1\CCCC12OCCO2 | – | > 100 | – | > 100 | – | – | – | > 100 | – | – | – | > 100 | – | > 100 | – | > 100 | – | > 100 | – | > 100 |
| OCCNc1ncnc2c1ncn2Cc1cccc(COc2cccc(OCc3cccc(Cn4cnc5c(NCCO)ncnc54)c3)c2)c1 | 18.4 | 42.1 | 30.9 | > 100 | 7.61 | 23.6 | 11.8 | 32.4 | – | – | 15.1 | 29 | – | – | 16.4 | 32.7 | 16 | 35.2 | 8.01 | 35.8 |
| COC(=O)c1nc(Cl)nc(Cl)c1Cl | – | 32.1 | – | 46.9 | – | 42.9 | – | 32.9 | – | > 100 | – | > 100 | – | 28.2 | – | > 100 | – | – | – | 31.9 |
| CCN(CC)C(=S)SC | – | – | – | > 100 | – | > 100 | – | > 100 | – | > 100 | – | > 100 | – | > 100 | – | > 100 | – | > 100 | – | > 100 |
| CC[O-].CC[O-].O=S(=O)([O-])c1ccc([O-])c2ncccc12.O=S(=O)([O-])c1ccc([O-])c2ncccc12.[Ti+4] | > 100 | > 100 | > 100 | > 100 | – | – | 37.2 | > 100 | > 100 | > 100 | – | – | – | – | 42.1 | > 100 | > 100 | > 100 | > 100 | > 100 |
| Nc1ccccc1C#C/C=C\C#Cc1ccccc1 | 1.44 | 8.35 | 26.2 | 92.3 | – | – | 13.3 | > 100 | 14.8 | 35.9 | 18.4 | 52.6 | 29.9 | > 100 | 5.93 | 28 | 25.5 | 98.3 | 12.8 | > 100 |
| CCOP(=O)(OCC)OC(C#N)c1ccc(-c2ccccc2)cc1 (stereo not given) | – | 47.6 | – | 32.8 | – | 52.6 | – | 29.9 | – | > 100 | – | 36.3 | – | – | – | 44.4 | – | > 100 | – | 40 |
| CC1C(=O)OCC2=CCN3CCC(OC(=O)C(C)C1(C)O)C23 (stereo not given) | – | > 100 | – | > 100 | – | > 100 | – | > 100 | – | > 100 | – | > 100 | – | – | – | > 100 | – | > 100 | – | > 100 |
| C/C(=N\N(c1ccccc1)c1ccccc1)c1c(O)cc(C)oc1=O | – | > 100 | – | > 100 | – | > 100 | – | > 100 | – | > 100 | – | > 100 | – | – | – | > 100 | – | > 100 | – | > 100 |
| COc1ccc2c(c1)/C(=C\c1c(Cl)[nH]c3ccc(OC)cc13)C(=O)N2 | > 100 | > 100 | > 100 | > 100 | 61.7 | > 100 | 46.9 | > 100 | > 100 | > 100 | 50.7 | > 100 | > 100 | > 100 | 61.2 | > 100 | 25.8 | 62.8 | – | – |
| COC(=O)[C@]12CCC(C)[C@H](C)[C@H]1C1=CCC3[C@@]4(C)CC[C@H](OC(C)=O)C(C)(C)C4CC[C@@]3(C)C1(C)C(O)C2 (stereo not given in full) | – | > 100 | – | – | – | > 100 | – | > 100 | – | > 100 | – | > 100 | – | – | – | > 100 | – | > 100 | – | > 100 |
| COC(=O)c1ccccc1NC(=O)C(=O)NNC(=O)c1ccncc1 | – | > 100 | – | > 100 | – | > 100 | – | > 100 | – | > 100 | – | > 100 | – | > 100 | – | – | – | – | – | – |
| O=c1cccc(C2CC(CO)C3CCCCN3C2)[nH]1 (stereo not given) | – | > 100 | – | > 100 | – | > 100 | – | > 100 | – | > 100 | – | > 100 | – | – | – | > 100 | – | > 100 | – | > 100 |
| CCOc1cccc(/C=N/NC(=O)C(=O)Nc2cccc(C(F)(F)F)c2)c1O | 0.528 | 6.49 | 0.459 | > 100 | – | – | 1.35 | 22 | 4.57 | > 100 | 0.808 | 60.3 | 4.07 | 55.1 | 1.24 | 97 | 5.3 | > 100 | 2 | > 100 |
| Cc1c(C(=O)NCCN2CCOCC2)cn2ncnc(Oc3ccc(NC(=O)Nc4ccc(Cl)c(C(F)(F)F)c4)cc3)c12 | 1.46 | 2.92 | 1.44 | 2.98 | 1.02 | 2.8 | 0.433 | 2.6 | – | – | 1.16 | 2.8 | 1.22 | 2.73 | – | – | – | – | – | – |
